Test results reported in ChEMBL document CHEMBL6127079, “Design and synthesis of spiro[pyrrolidine-3,3'-quinoline]-2,2'-dione derivatives as novel antifungal agents targeting chitin synthase” (Eur J Med Chem, 2024).
In brackets after ≈: the same amount, converted by molar mass. *1 amine or outer side, *2 acyl side, *3 side chain or, on linkers, in order; H or OH if unused. Where a SMILES comes first, the peptide text is derived from it. Bridges are numbered along the chain shown (N, C = ends). [ ]: non-standard residue; d: D form. The star is where a group is joined. hTyr(3S-OH,4S-OH,3'-OSO3H) = N[C@H](C(=O)O)[C@H](O)[C@@H](O)c1ccc(O)c(OS(=O)(=O)O)c1; Orn(4R-OH,5R-OH) = O=C([C@H](C[C@@H](O)[C@@H](O)N[*:3])N[*:1])[*:2]; Pro(3S-OH,4S-Me) = C[C@H]1CN[C@H](C(=O)O)[C@H]1O; X1 = CCCCCOc1ccc(-c2cc(-c3ccc(C(=O)*)cc3)no2)cc1; Gln(3R-OH) = NC(=O)C[C@@H](O)[C@H](N)C(=O)O; Hyp = O=C(O)[C@@H]1C[C@@H](O)CN1

Experiments:
Candida tropicalis = assay: Inhibition of chitin synthase extracted from Candida tropicalis ATCC 750 using UDP-GlcNAc as substrate assessed as inhibition rate at 300 ug/ml by TMB based microplate analyzer relative to control; conditions: dose 300.0 µg/ml
[1] = Inhibition of chitin synthase extracted from Candida tropicalis ATCC 750 using UDP-GlcNAc as substrate assessed as inhibition rate by TMB based microplate analyzer relative to control
Candida albicans [2] = assay: Antifungal activity against Candida albicans ATCC 76615 assessed as inhibition of growth incubated for 24 hrs by two-fold serial dilution method; assay type: functional
Aspergillus flavus [3] = assay: Antifungal activity against Aspergillus flavus ATCC 16870 assessed as inhibition of growth incubated for 24 hrs by two-fold serial dilution method; assay type: functional
Aspergillus fumigatus [4] = assay: Antifungal activity against Aspergillus fumigatus GIMCC 3.19 assessed as inhibition of growth incubated for 24 hrs by two-fold serial dilution method; assay type: functional
Cryptococcus neoformans [5] = assay: Antifungal activity against Cryptococcus neoformans ATCC 32719 assessed as inhibition of growth incubated for 24 hrs by two-fold serial dilution method; assay type: functional
Candida albicans [6] = assay: Antifungal activity against fluconazole-resistant Candida albicans ATCC 76615 assessed as inhibition of fungal growth incubated for 24 to 72 hrs; assay type: functional; conditions: time 24-72 hrs
Aspergillus flavus [7] = assay: Antifungal activity against fluconazole-resistant Aspergillus flavus ATCC 16870 assessed as inhibition of fungal growth incubated for 24 to 72 hrs; assay type: functional; conditions: time 24-72 hrs
Aspergillus fumigatus [8] = assay: Antifungal activity against fluconazole-resistant Aspergillus fumigatus GIMCC 3.19 assessed as inhibition of fungal growth incubated for 24 to 72 hrs; assay type: functional; conditions: time 24-72 hrs
Cryptococcus neoformans [9] = assay: Antifungal activity against fluconazole-resistant Cryptococcus neoformans ATCC 32719 assessed as inhibition of fungal growth incubated for 24 to 72 hrs; assay type: functional; conditions: time 24-72 hrs
Candida albicans [10] = assay: Antifungal activity against Candida albicans ATCC 76615 incubated for 24 hrs by half broth dilution based checkerboard method; assay type: functional
Aspergillus flavus [11] = assay: Antifungal activity against Aspergillus flavus ATCC 16870 incubated for 24 hrs by half broth dilution based checkerboard method; assay type: functional
Aspergillus fumigatus [12] = assay: Antifungal activity against Aspergillus fumigatus GIMCC 3.19 incubated for 24 hrs by half broth dilution based checkerboard method; assay type: functional
Cryptococcus neoformans [13] = assay: Antifungal activity against Cryptococcus neoformans ATCC 32719 incubated for 24 hrs by half broth dilution based checkerboard method; assay type: functional
Candida albicans [14] = assay: Antifungal activity against micafungin-resistant Candida albicans ATCC 76615 assessed as inhibition of fungal growth incubated for 24 to 72 hrs; assay type: functional; conditions: time 24-72 hrs

| SMILES | inhibition (Candida tropicalis) | IC50 [1] | MIC (Candida albicans [2]) | MIC (Aspergillus flavus [3]) | MIC (Aspergillus fumigatus [4]) | MIC (Cryptococcus neoformans [5]) | MIC (Candida albicans [6]) | MIC (Aspergillus flavus [7]) | MIC (Aspergillus fumigatus [8]) | MIC (Cryptococcus neoformans [9]) | MIC (Candida albicans [10]) | MIC (Aspergillus flavus [11]) | MIC (Aspergillus fumigatus [12]) | MIC (Cryptococcus neoformans [13]) | MIC (Candida albicans [14]) |
| --- | --- | --- | --- | --- | --- | --- | --- | --- | --- | --- | --- | --- | --- | --- | --- |
| O=C(/C=C/C(=O)Nc1nccs1)Nc1ccc2c(c1)NC(=O)C1(CCNC1=O)C2 (racemic) | 55.8% | 441 µM | 64 µg/mL (≈ 156 µM) | 64 µg/mL (≈ 156 µM) | 32 µg/mL (≈ 77.8 µM) | 32 µg/mL (≈ 77.8 µM) |  |  |  |  |  |  |  |  |  |
| O=C(/C=C/C(=O)Nc1ccc2c(c1)NC(=O)C1(CCNC1=O)C2)NCc1ccccc1 (racemic) | 49.5% |  | 32 µg/mL (≈ 76.5 µM) | 16 µg/mL (≈ 38.2 µM) | 64 µg/mL (≈ 153 µM) | 16 µg/mL (≈ 38.2 µM) |  |  |  |  |  |  |  |  |  |
| O=C(CN1CCC(C(=O)Nc2nc3ccccc3s2)CC1)Nc1ccc2c(c1)NC(=O)C1(CCNC1=O)C2 (racemic) | 57.7% | 379 µM | 64 µg/mL (≈ 120 µM) | 32 µg/mL (≈ 60.1 µM) | 32 µg/mL (≈ 60.1 µM) | 16 µg/mL (≈ 30 µM) |  |  |  |  |  |  |  |  |  |
| CCCCN(CCCC)C(=O)/C=C/C(=O)Nc1ccc2c(c1)NC(=O)C1(CCNC1=O)C2 (racemic) | 28.2% |  | 256 µg/mL (≈ 581 µM) | 256 µg/mL (≈ 581 µM) | 256 µg/mL (≈ 581 µM) | 128 µg/mL (≈ 291 µM) |  |  |  |  |  |  |  |  |  |
| CCCCNC(=O)/C=C/C(=O)Nc1ccc2c(c1)NC(=O)C1(CCNC1=O)C2 (racemic) | 35.7% |  | 128 µg/mL (≈ 333 µM) | 64 µg/mL (≈ 166 µM) | 256 µg/mL (≈ 666 µM) | 128 µg/mL (≈ 333 µM) |  |  |  |  |  |  |  |  |  |
| O=C(/C=C/C(=O)Nc1ccc2c(c1)NC(=O)C1(CCNC1=O)C2)Nc1ccccc1 (racemic) | 39.6% |  | 64 µg/mL (≈ 158 µM) | 64 µg/mL (≈ 158 µM) | 32 µg/mL (≈ 79.1 µM) | 128 µg/mL (≈ 316 µM) |  |  |  |  |  |  |  |  |  |
| CCCCNC(=O)C1CCN(CC(=O)Nc2ccc3c(c2)NC(=O)C2(CCNC2=O)C3)CC1 (racemic) | 18.2% |  | 256 µg/mL (≈ 562 µM) | 64 µg/mL (≈ 140 µM) | 256 µg/mL (≈ 562 µM) | 128 µg/mL (≈ 281 µM) |  |  |  |  |  |  |  |  |  |
| COc1ccccc1NC(=O)C1CCN(CC(=O)Nc2ccc3c(c2)NC(=O)C2(CCNC2=O)C3)CC1 (racemic) | 39.7% |  | 64 µg/mL (≈ 127 µM) | 32 µg/mL (≈ 63.3 µM) | 128 µg/mL (≈ 253 µM) | 32 µg/mL (≈ 63.3 µM) |  |  |  |  |  |  |  |  |  |
| O=C(CN1CCC(C(=O)Nc2ccc(F)cc2)CC1)Nc1ccc2c(c1)NC(=O)C1(CCNC1=O)C2 (racemic) | 79.7% |  | 128 µg/mL (≈ 259 µM) | 32 µg/mL (≈ 64.8 µM) | 64 µg/mL (≈ 130 µM) | 128 µg/mL (≈ 259 µM) |  |  |  |  |  |  |  |  |  |
| CCCCCCNC(=O)C1CCN(CC(=O)Nc2ccc3c(c2)NC(=O)C2(CCNC2=O)C3)CC1 (racemic) | 24% |  | 128 µg/mL (≈ 265 µM) | 256 µg/mL (≈ 529 µM) | 128 µg/mL (≈ 265 µM) | 256 µg/mL (≈ 529 µM) |  |  |  |  |  |  |  |  |  |
| O=C(/C=C/C(=O)Nc1ccccc1Br)Nc1ccc2c(c1)NC(=O)C1(CCNC1=O)C2 (racemic) | 66.2% | 266 µM | 32 µg/mL (≈ 66.2 µM) | 32 µg/mL (≈ 66.2 µM) | 32 µg/mL (≈ 66.2 µM) | 16 µg/mL (≈ 33.1 µM) |  |  |  |  |  |  |  |  |  |
| CCCCCNC(=O)/C=C/C(=O)Nc1ccc2c(c1)NC(=O)C1(CCNC1=O)C2 (racemic) | 37.9% |  | 256 µg/mL (≈ 642 µM) | 128 µg/mL (≈ 321 µM) | 128 µg/mL (≈ 321 µM) | 256 µg/mL (≈ 642 µM) |  |  |  |  |  |  |  |  |  |
| OC(Cn1cncn1)(Cn1cncn1)c1ccc(F)cc1F [FLUCONAZOLE] |  |  | 8 µg/mL (≈ 26.1 µM) | 4 µg/mL (≈ 13.1 µM) | 4 µg/mL (≈ 13.1 µM) | 8 µg/mL (≈ 26.1 µM) | 256 µg/mL (≈ 836 µM) | 256 µg/mL (≈ 836 µM) | 256 µg/mL (≈ 836 µM) | 256 µg/mL (≈ 836 µM) | 8 µg/mL | 4 µg/mL | 4 µg/mL | 8 µg/mL |  |
| CCCCCOc1ccc(-c2cc(-c3ccc(C(=O)N[C@H]4C[C@@H](O)[C@@H](O)NC(=O)[C@@H]5[C@@H](O)[C@@H](C)CN5C(=O)[C@H]([C@H](O)CC(N)=O)NC(=O)[C@H]([C@H](O)[C@@H](O)c5ccc(O)c(OS(=O)(=O)O)c5)NC(=O)[C@@H]5C[C@@H](O)CN5C(=O)[C@H]([C@@H](C)O)NC4=O)cc3)no2)cc1 [MICAFUNGIN] (X1-[Orn(4R-OH,5R-OH)]T[Hyp][hTyr(3S-OH,4S-OH,3'-OSO3H)][Gln(3R-OH)][Pro(3S-OH,4S-Me)]; lactam 1-C) |  |  |  |  |  |  |  |  |  |  |  |  |  |  | 256 µg/mL (≈ 202 µM) |
